Measurements from patent publication US20260271926A1, “BACTERIA-RESPONSIVE PARTICLES, METHODS FOR PREPARATION, AND USE IN PACKAGING OR ON SURFACES” (priority 2023, published 2026).

Assays:
[1] = Calcein fluorescence stability in 1685 NYC III medium and G. vaginalis supernatant; type: physicochemical; conditions: 10 μg/mL calcein, 37° C., 140 hours
Protocol: Bacteria-responsive calcein release of liposomes. Calcein's stability in different media was evaluated by measuring its fluorescence intensity that varied with time in 1685 NYC III medium and G. vaginalis supernatant, respectively. Briefly, calcein was dissolved in the medium to reach a concentration of 10 μg/mL (with 1% v/v penicillin/streptomycin) added. The solution was incubated at 37° C. and shaken at 100 rpm (avoid light). Samples were taken at different time intervals and changes of fluorescence intensity were monitored.

[2] = test system: human red blood cells (RBCs); assay: Hemolytic activity assay; type: cell-based; conditions: 2% human RBCs, 30 min, 37° C.
Protocol: Hemolytic Activity Assay. For hemolytic assays, washed human red blood cells (RBCs) (Innovative Research, Novi, MI USA) were suspended in 1×PBS (pH 7.2, Wisent, Quebec City, QC Canada) to a final concentration of 2%. For sequestration studies, liposomal samples were diluted in PBS to the desired concentration and added to the erythrocytes. The hemolytic reaction was then initiated through the addition of either bacterial supernatant normalized to a 0.5 McFarland standard or recombinant S. pneumoniae serotype 2 PLY (E. coli host expression, MyBioSource, San Diego, CA USA) at the desired volume or concentration. For assays involving PLY, the toxin was preincubated with 2 mM dithiothreitol (DTT) for 1 hr at room temperature prior to the assay in order to reduce the cysteine residue present in the undecapeptide sequence and activate the protein [59]. The solution was incubated in a 1.5 ml Eppendorf microtube for 30 min at 37° C. and non-lysed RBCs were pelleted via centrifugation at 1000×g for 10 min at 4° C. The supernatant was then collected and transferred to a 96 well plate, with the extent of hemoglobin release determined via absorbance measurements at 450 nm. A control set was also included, involving a negative control of RBCs in only PBS and a positive control of RBCs in a 0.02% Triton™ X-100 solution (100% lysis). Percent lysis was determined from these readouts as per Eq (4): […]

| Compound | calcein fluorescence decrease [1] | concentration giving full lysis [2] |
| --- | --- | --- |
| O=C(O)CN(CC(=O)O)Cc1cc2c(cc1O)Oc1cc(O)c(CN(CC(=O)O)CC(=O)O)cc1C21OC(=O)c2ccccc21 [calcein] | 11-15% | – |
| pneumolysin [PLY] | – | 200 ng/mL |
